Measured values reported in publication PMC7399811, “Analogues of a Cyclic Antimicrobial Peptide with a Flexible Linker Show Promising Activity against Pseudomonas aeruginosa and Staphylococcus aureus” (Antibiotics, 2020).
In brackets after ≈: the same amount, converted by molar mass. Square brackets hold non-standard residues; d marks the D form. Peptide text beside a SMILES is read from it. Bip = N[C@@H](Cc1ccc(-c2ccccc2)cc1)C(=O)O; 2Nal = N[C@@H](Cc1ccc2ccccc2c1)C(=O)O; Dab = NCC[C@H](N)C(=O)O; AEEA = NCCOCCOCC(=O)O

Tests used:
A. baumannii ATCC 19606 = type: cell-based; conditions: for Minimum inhibitory concentration AB: ATCC 19606
Description: (§1) Bacterial strains (E. coli ATCC 29522, S. aureus ATCC 29213, A. baumannii ATCC 19606, and P. aeruginosa ATCC 27853) were grown overnight on LB agar plates at 37 °C. Overnight cultures were prepared by inoculation of two to three colonies in 10 mL non-cation adjusted Mueller–Hinton broth (MHB) media (BD BBLTM Beef extract powder, BD BactoTMCasamino acids, and DIFCO soluble starch). Bacterial inoculum for MIC testing was prepared as balanced cultures, as previously described. The bacterial suspension was adjusted using MHB to an OD600 of 0.1, approximately 1·10^8 colony forming units (CFU/mL), and then diluted 1:200 in MHB, to give a final bacterial suspension of 5·10^5 CFU/mL, as described by Wiegand et al.. […] For MIC determination, all peptides were measured in triplicates using the protocol described by Wiegand et al. for “antimicrobial peptides that require the presence of acetic acid/BSA”. In brief, 20 µL peptide solution and gentamycin solution was transferred to column 1 of 96-well plates. Next, 10 µL 0.2% BSA; 0.01% acetic acid MHB media was transferred to column 2–11. Subsequently, peptides were serially diluted two-fold in the MIC plate and 90 µL bacterial suspension was transferred to all wells in column 1–11. Next, 100 µL bacterial suspension was transferred to column 12 D–F (growth control) and 100 µL media to column 12 A–C (sterility control). After an overnight incubation at 37 °C of the MIC plates, MIC values were determined as the lowest concentration at which there was no visible bacterial growth. For the inoculum control, 10 µL of solution from a positive-growth control well from each bacterial strain was dissolved in 990 µL phosphate-buffered saline (PBS) (1:100 dilution) in an Eppendorf tube. This solution was vortexed and 100 µL transferred to another Eppendorf tube containing 900 µL PBS (1:10 dilution) and vortexed. Then, 100 µL of each dilution was spread onto the MHB media plates, in triplicates, to achieve a CFU dilution of 1:1000 and 1:10,000, respectively. The plates were incubated overnight at 37 °C. The colonies were counted and 50 colonies were expected on the 1:10,000 plates and 500 on the 1:1000 plates.

E. coli ATCC 29522 = type: cell-based; conditions: for Minimum inhibitory concentration EC: ATCC 29522
Description: as §1

P. aeruginosa ATCC 27853 [1] = type: cell-based
Description: as §1

S. aureus ATCC 29213 [2] = type: cell-based
Description: as §1

[3] = RP-HPLC retention time as indicator of hydrophobicity/amphipathicity; type: physicochemical; conditions: chromatographic, Waters Symmetry C18 4.6 × 250 mm, used as measure of hydrophobicity/amphipathicity (Table S1)
Description: Cleavage was performed on half or all of the resin with a TFA:H2O:TIS (95:2.5:2.5) solution for 2 h. The cleavage solution was collected and concentrated with a gentle stream of N2, down to about 300 µL. The peptide was precipitated and washed with 4 mL cold (−20 °C) diethyl ether, 3 times. The residual ether was left overnight to evaporate. Next, the crude product was dissolved in 90% water and 10% ACN and freeze-dried, ready for analysis and purification. Peptides were identified using Matrix Assisted Laser Desorption Ionization time of flight mass spectroscopy (MALDI–ToF MS). To this end, 1 µL peptide solution and 1 µL α-cyano4-hydroxycinnamic acid matrix (10 mg/ mL in ACN:H2O:TFA, 50:47.5:2.5) were spotted onto a target plate, followed by detection using a MicroflexTM. FlexControl software was used to obtain the spectra and the data were processed using flexAnalysis [Bruker Daltonik GmbH]. RP–HPLC was used to assess peptide purity. The system consisted of a WatersTM In-Line Degasser AF, a WatersTM 600 pump, a WatersTM 2996 Photodiode Array Detector, and a WatersTM Symmetry C18, 4.6 × 250 mm, […] column. The data were processed using Empower3 software. Purity was ≥95% for all tested peptide. Peptide purification was done by dissolving the peptides in minimal […], and 300–500 µL was injected into the HPLC system to achieve separation.

[4] = tested on: S. aureus, P. aeruginosa, E. coli, A. baumannii; assay: Minimum inhibitory concentration, statements over several strains; type: cell-based; conditions: MIC against S. aureus and P. aeruginosa
Description: Bacterial strains (E. coli ATCC 29522, S. aureus ATCC 29213, A. baumannii ATCC 19606, and P. aeruginosa ATCC 27853) were grown overnight on LB agar plates at 37 °C. Overnight cultures were prepared by inoculation of two to three colonies in 10 mL non-cation adjusted Mueller–Hinton broth (MHB) media (BD BBLTM Beef extract powder, BD BactoTMCasamino acids, and DIFCO soluble starch). Bacterial inoculum for MIC testing was prepared as balanced cultures, as previously described. The bacterial suspension was adjusted using MHB to an OD600 of 0.1, approximately 1·10^8 colony forming units (CFU/mL), and then diluted 1:200 in MHB, to give a final bacterial suspension of 5·10^5 CFU/mL, as described by Wiegand et al.. […] For MIC determination, all peptides were measured in triplicates using the protocol described by Wiegand et al. for “antimicrobial peptides that require the presence of acetic acid/BSA”. In brief, 20 µL peptide solution and gentamycin solution was transferred to column 1 of 96-well plates. Next, 10 µL 0.2% BSA; 0.01% acetic acid MHB media was transferred to column 2–11. Subsequently, peptides were serially diluted two-fold in the MIC plate and 90 µL bacterial suspension was transferred to all wells in column 1–11. […] The colonies were counted and 50 colonies were expected on the 1:10,000 plates and 500 on the 1:1000 plates.

red blood cells = conditions: at 150 µM peptide; 0.5% v/v RBC in PBS, 1 h 37 °C, absorbance 414 nm, normalized to melittin (100%) and PBS (0%)
Description: A total of 150 µL of 5 µM melittin was added to the positive control wells 1-6H of a V-shaped 96-well polypropylene plate and left overnight. The melittin solution was removed and the positive control wells were washed 3 times with 150 µL PBS. Afterwards, a 2.5 µM melittin solution was added to the positive control wells. For the assay, 0-negative blood in EDTA was used. Blood was washed by mixing 3 mL of PBS with 1 mL of whole blood, and centrifuged for 8 min at 3000 rpm. The supernatant was discarded and 4 mL of PBS added, mixed gently, and centrifuged. This wash cycle was repeated but the last centrifuge velocity was raised to 4000 rpm. Next, 40 µL red blood cells (RBC) was suspended in 8 mL of PBS to achieve an RBC suspension of 0.5% volume/volume (v/v). Peptide solutions were prepared at 600 µM, two times the highest concentration. A total of 150 µL peptide solution was transferred to row A. Next, 75 µL PBS was transferred to wells B1 to G12, as well as H7-12 (negative control), and the peptides were serially diluted two-fold. Then, 75 µL RBC suspension was added to all wells and the plate was covered with a Microseal® film and incubated for 1 h at 37 °C. Next, the plate was centrifuged for 10 min at 4000 rpm. Subsequently, 60 µL supernatant was transferred into the corresponding wells of a clear, polystyrene, flat-bottomed 96-well ELISA plate. The absorbance was read at λ = 414 nm with a VersaMaxTM Tunable Microplate Reader and the data were evaluated on Softmax® Pro. The results were normalized with respect to the average positive (100%) and negative (0%) controls, as described previously [43].

P. aeruginosa ATCC 27853 [5] = assay: Time-kill kinetics; type: cell-based; conditions: for kind of activity in time-kill experiments: P. aeruginosa; for effect on CFU: P. aeruginosa late exponential phase (OD600 ~0.1)
Description: (§2) The killing kinetics of compound 11 (Figure 1A–D) were performed in two types of experiments on approximately 5 × 10^5 (exponential phase) and 5 × 10^7 (late exponential phase) colony forming units (CFU). […] Colistin and chloramphenicol was used as control antibiotics against P. aeruginosa and S. aureus, respectively. Chloramphenicol was chosen against S. aureus because initial experiments indicated 11 to be bacteriostatic. Time-kill experiments were performed on balanced exponentially growing cultures of S. aureus ATCC 29213 or P. aeruginosa ATCC 27853. We used balanced cultures, as described in Oddo et al.. In brief, overnight cultures were prepared in MHB broth at 37 °C, with shaking. Overnight cultures, were back diluted and grown exponentially for no less than 8–10 generations, before experimentation. When experiments were done at OD600 = 0.0005 ~5 × 10^5, the cultures were back diluted into fresh MHB, heated to 37 °C from an exponentially growing culture. In the late exponential phase, cultures were simply kept in the exponential phase, until OD600 = 0.1, before experimentation.

S. aureus ATCC 29213 [6] = assay: Time-kill kinetics; type: cell-based
Description: as §2

[7] = P. aeruginosa late exponential phase, 5× MIC

## NCC[C@@H]1NC(=O)[C@H](Cc2ccc3ccccc3c2)NC(=O)COCCOCCNC(=O)[C@H](Cc2ccc(-c3ccccc3)cc2)NC(=O)[C@H](CCN)NC(=O)[C@H](CCN)NC(=O)[C@H](Cc2ccc3ccccc3c2)NC(=O)[C@H](CCN)NC(=O)[C@H](CC(N)=O)NC1=O [compound 9] (cyclo([Dab][2Nal][Dab][Dab][Bip][AEEA][2Nal][Dab]N))
A. baumannii ATCC 19606
  Minimum inhibitory concentration AB: 32 µg/mL (≈ 25 µM)
E. coli ATCC 29522
  Minimum inhibitory concentration EC: >64 µg/mL
P. aeruginosa ATCC 27853 [1]
  Minimum inhibitory concentration PA: 4 µg/mL (≈ 3.13 µM)
S. aureus ATCC 29213 [2]
  Minimum inhibitory concentration SA: 8 µg/mL (≈ 6.26 µM)
[3]
  HPLC retention time (RT): 17.8 min
[4]
  increase in activity compared to BSI-9: 8 fold
Red blood cells
  percent hemolytic activity against red blood cells (%H): 76%

## N=C(N)NCCC[C@@H]1NC(=O)[C@H](Cc2ccc3ccccc3c2)NC(=O)[C@H](CCN)NC(=O)[C@H](CC(N)=O)NC(=O)[C@H](CCN)NC(=O)[C@H](Cc2ccc3ccccc3c2)NC(=O)COCCOCCNC(=O)[C@H](Cc2ccc(-c3ccccc3)cc2)NC(=O)[C@H](CCN)NC1=O [compound 11] (cyclo([Dab][2Nal]R[Dab][Bip][AEEA][2Nal][Dab]N))
A. baumannii ATCC 19606; A. baumannii
  activity in MIC assays: no activity
A. baumannii ATCC 19606
  Minimum inhibitory concentration AB: 32 µg/mL (≈ 24 µM)
E. coli ATCC 29522
  Minimum inhibitory concentration EC: 32 µg/mL (≈ 24 µM)
E. coli ATCC 29522; E. coli
  activity in MIC assays: no activity
P. aeruginosa ATCC 27853 [5]
  kind of activity in time-kill experiments: bactericidal
P. aeruginosa ATCC 27853 [5]; P. aeruginosa exponential phase (~5 × 10^5 CFU), 1× MIC
  reduction in viable bacterial counts: ~ 2 log
P. aeruginosa ATCC 27853 [5]; P. aeruginosa exponential phase, 3–5× MIC, within the first hour
  reduction in CFU: > 3 log
P. aeruginosa ATCC 27853 [5]; 1× MIC
  effect on CFU: virtually no effect
P. aeruginosa ATCC 27853 [5]; P. aeruginosa late exponential phase, 3× MIC
  reduction in CFU: 1 log
P. aeruginosa ATCC 27853 [5]; [7]
  reduction in CFU: 3 log
S. aureus ATCC 29213 [6]; S. aureus exponential phase, 1× MIC
  reduction in CFU: 2 log
S. aureus ATCC 29213 [6]; S. aureus exponential phase, 3× MIC and 5× MIC
  reduction in CFU: > 3 log
S. aureus ATCC 29213 [6]; S. aureus late exponential phase, 5× MIC, regrowth after 24 h
  reduction in CFU: 3 log
Red blood cells
  percent hemolytic activity against red blood cells (%H): 36%

## N=C(N)NCCC[C@@H]1NC(=O)[C@H](Cc2ccc3ccccc3c2)NC(=O)COCCOCCNC(=O)[C@H](Cc2ccc(-c3ccccc3)cc2)NC(=O)[C@H](CCN)NC(=O)[C@H](CCN)NC(=O)[C@H](Cc2ccc3ccccc3c2)NC(=O)[C@H](CCN)NC(=O)[C@H](CC(N)=O)NC1=O [compound 13] (cyclo([Dab][2Nal][Dab][Dab][Bip][AEEA][2Nal]RN))
A. baumannii ATCC 19606
  Minimum inhibitory concentration AB: 64 µg/mL (≈ 48 µM)
E. coli ATCC 29522
  Minimum inhibitory concentration EC: 32 µg/mL (≈ 24 µM)
P. aeruginosa ATCC 27853 [1]
  Minimum inhibitory concentration PA: 4 µg/mL (≈ 3 µM)
S. aureus ATCC 29213 [2]
  Minimum inhibitory concentration SA: 1 µg/mL (≈ 0.75 µM)
[3]
  HPLC retention time (RT): 17.9 min
Red blood cells
  percent hemolytic activity against red blood cells (%H): 80%

## N=C(N)NCCC[C@@H]1NC(=O)[C@H](CC(N)=O)NC(=O)[C@H](CCN)NC(=O)[C@H](Cc2ccc3ccccc3c2)NC(=O)COCCOCCNC(=O)[C@H](Cc2ccccc2)NC(=O)[C@H](CCN)NC(=O)[C@H](CCN)NC(=O)[C@H](Cc2ccc3ccccc3c2)NC1=O [compound 17] (cyclo(R[2Nal][Dab][Dab]F[AEEA][2Nal][Dab]N))
A. baumannii ATCC 19606
  Minimum inhibitory concentration AB: >64 µg/mL
E. coli ATCC 29522
  Minimum inhibitory concentration EC: 64 µg/mL (≈ 50.9 µM)
P. aeruginosa ATCC 27853 [1]
  Minimum inhibitory concentration PA: 16 µg/mL (≈ 12.7 µM)
S. aureus ATCC 29213 [2]
  Minimum inhibitory concentration SA: 64 µg/mL (≈ 50.9 µM)
Red blood cells
  percent hemolytic activity against red blood cells (%H): 3%

## N=C(N)NCCC[C@@H]1NC(=O)[C@H](Cc2ccc3ccccc3c2)NC(=O)[C@H](CCN)NC(=O)[C@H](CC(N)=O)NC(=O)[C@H](CCN)NC(=O)[C@H](Cc2ccc3ccccc3c2)NC(=O)COCCOCCNC(=O)[C@H](Cc2ccccc2)NC(=O)[C@H](CCN)NC1=O [compound 18] (cyclo([Dab][2Nal]R[Dab]F[AEEA][2Nal][Dab]N))
A. baumannii ATCC 19606
  Minimum inhibitory concentration AB: >64 µg/mL
E. coli ATCC 29522
  Minimum inhibitory concentration EC: 64 µg/mL (≈ 50.9 µM)
P. aeruginosa ATCC 27853 [1]
  Minimum inhibitory concentration PA: 16 µg/mL (≈ 12.7 µM)
S. aureus ATCC 29213 [2]
  Minimum inhibitory concentration SA: 64 µg/mL (≈ 50.9 µM)
Red blood cells
  percent hemolytic activity against red blood cells (%H): 30%

## colistin [reference compound]
P. aeruginosa ATCC 27853 [5]
  kind of activity in time-kill experiments: bactericidal
P. aeruginosa ATCC 27853 [5]; 1× MIC
  effect on CFU: virtually no effect
P. aeruginosa ATCC 27853 [5]; [7]
  reduction in CFU: 1 log
